Reference: patent US20210338661A1, “NEW USES OF A PURE 5-HT 6 RECEPTOR ANTAGONIST” (SUVEN LIFE SCIENCES LIMITED, priority 2017, published 2021)

Key:
[1] = tested on: Male Wistar rats; experiment: Object recognition task in doxorubicin-treated rats (in vivo model for chemotherapy-induced cognitive impairment); design: species or system rat; details: DOX 2.5 mg/kg, i.p. treated male Wistar rats; SUVN-502 1 and 10 mg/kg, p.o.; FIG. 6
Procedure: Male Wistar rats (230-280 g) were used as experimental animals. Four animals were housed in each cage. Rats were acclimatized for 7 days (Days 1-7) to the laboratory conditions. Chemotherapy-induced cognitive impairment was induced by injecting doxorubicin (DOX) at 2.5 mg/kg, i.p. once in every 5 days up to 8 cycles (days 8-49). […] On experimental day 50, following 60 min of formulation dosing, animals were habituated to the arenas for 45 min. On day 51, animals were treated with their respective formulations 60 min prior to the familiarization trial (T1) during which rats was presented with two similar objects i.e., silver Milton flasks (a1 and a2) for 3 min. After an interval of 30 min, rats were subjected to choice trial (T2), with one familiar (silver, a3) and one novel (red, b) object for a period of 3 min. During the T1 and T2 trials, exploration time of each object (defined as sniffing, licking, chewing or having moving vibrissae whilst directing the nose towards the object at a distance of less than 1 cm) were recorded separately by hand held stop watch. • Reference: Behavioural Brain Research, 1988, 31, 47-59.

[2] = tested on: Aged rats; experiment: Morris water maze task in aged rats (in vivo model for senile dementia); design: species or system rat; details: 10 mg/kg, p.o.
Procedure: Morris Water Maze Task (In Vivo Model for Senile Dementia): The water maze apparatus consisted of a circular pool (1.8 m diameter, 0.6 m high) constructed in black perspex (TSE, systems, Germany) filled with water (24° C.). The maze was positioned underneath a wide-angled video camera. A 16 cm diameter perspex platform, lying 1 cm below the water surface, was placed in the center of one of the four imaginary quadrants, which remained constant for all rats. The maze offered no intra-maze cues to guide the escape behavior, however, the training room offered several strong extra maze visual cues to aid escape learning. An automated tracking system (Videomot 2 (5.51), TSE systems, Germany) was employed to track animal and record the parameters. […] Aged rats (˜80 weeks old) were placed facing the wall of the maze and lowered gently, feet first into water. Rats were allowed to swim for 60 seconds to find the platform. If the platform was found during this time, the trial was stopped and rat was allowed to stay on platform for 10 seconds before being removed from the maze. If the platform was not found during the 60 seconds trial, rat was guided to the platform and allowed to stay on platform for 10 seconds before being removed from the maze. The rats were taken off the platform ensuring that the rat see the investigator's hand from the front before removal. They were dried gently with a towel. Each rat received 4 trials in a day. The maze has 8 starting points. On the first, third and fifth day the animals started from 1st, 3rd, 5th and 7th starting point and on the second and fourth day the animals started from 2nd, 4th, 6th and […]. […] Retention of the task was assessed on 10th day, during which each animal received a single 30 seconds probe trial. […] Latency to reach the platform (s), swim speed (cm/s) and path length (cm) were recorded during acquisition trials. Percentage time spent in target quadrant (quadrant in which platform was placed during acquisition training) and swim speed (cm/s) were recorded for the probe trial.

[3] = tested on: CD1 mice; experiment: Resident intruder task (in vivo model for aggression due to dementia); design: species or system mouse; details: 1, 3 and 10 mg/kg, p.o., 60 minutes prior to the trial, FIG. 4
Procedure: Resident Intruder Task (In Vivo Model for Aggression Due to Dementia): Male CD1 mice of weight 20-35 g (Resident), 15-25 g (Intruder) and ovariectomized female mice (20-25 g) were used. Resident mice were habituated individually with ovariectomized female mice in each cage. β-estradiol at a dose of 0.2 mg/kg, s.c. was administered to female mice during habituation. Intruders were habituated socially for 1 week. On day 1 and day 2, intruder was exposed to resident mice in resident's home cage for a period of 10 minutes and duration of attack was recorded. During this exposure period, female mice were removed from the cage. On day 4, animals were randomized based on their duration of attack and respective treatments were administered. […] After post dose interval, resident mice were exposed to same intruder for 10 min and duration of attack was recorded.

[4] = tested on: BCCL rats; experiment: Contextual fear conditioning in bilateral common carotid artery ligated rats (in vivo model for vascular dementia); design: species or system rat; details: 3 and 10 mg/kg, p.o., 60 min post dose, FIG. 5
Source text: Contextual Fear Conditioning (In Vivo Model for Vascular Dementia): Male Wistar rats of age 2-3 months were used. Rats were induced vascular dementia by surgical procedure, which involves bilateral common carotid artery ligation (BCCL). Briefly, rats were anaesthetized using 2-5% isoflurane gaseous anesthesia. A dorsal incision was made near the neck region and two bilateral common carotid arteries were exposed. Both the arteries were separated from their sheaths and vagal nerves, and permanently ligated using 4-0 silk sutures. Sham animals were subjected to surgery except for ligation. After an induction period of 14 days, rats were examined in fear conditioning task. On day 1, rats were placed in the behavioral chamber and allowed to acclimatize for 1 min. Post acclimatization rats received a conditioned stimulus (CS) (tone for 10 sec) followed by an unavoidable foot shock (unconditioned stimulus (US): electric shock of 0.4 mA for 1 sec). Following a 40 sec interval between each administration, tone and shock were repeated to deliver a total of six CS-US pairings. […] After post dose interval of 60 min, animals were scored for the duration of freezing without shock stimulus. Shocking and scoring was controlled by Freeze frame software.

[5] = tested on: ovariectomized female Wistar rats; experiment: Object recognition task in ovariectomized rats (in vivo model for dementia due to menopause); design: species or system rat; details: SUVN-502 1, 3 and 10 mg/kg, p.o. one hour prior to evaluation, FIGS. 1 and 2
Procedure: Object Recognition Task (In Vivo Model for Dementia Due to Menopause) Bilateral ovariectomy surgery was carried out in 7-8 weeks old female rats. Briefly, animals were anesthetized using Avertin (2,2,2-tri bromo ethanol) at 150 mg/kg, i.p. and were lay down on the surgery table. A midline incision was given on the dorsal region below the rib cage and 1 cm lateral to the either side of midline, a small incision was given on fascia to locate the adipose fat supporting the ovaries. By slowly pulling out the fat tissue, the ovary is identified and excised following the uterine horn ligation with silk sutures. Fascia was also covered with sutures and the similar procedure was repeated on the other side. Superficial skin layers were sutured and gentamicin (15 mg/kg, s.c.) was given as antibiotic and meloxicam (1 mg/kg, i.m.) as analgesic with povidone iodine applied on superficial skin layers at last. Episodic memory which is a memory of autobiographical events contextual in relation to time, place etc. was assessed 4 weeks after the surgery using object recognition task. Object recognition task was carried out using black circular arenas (50 cm height×50 cm diameter) made of PVC laminates. […] Discriminative index was calculated as ratio of time spent exploring the novel object divided by sum of time spent exploring the novel object and familiar object in choice trial.

Structure (SMILES)	novel object recognition (exploration time, novel versus familiar object) [1]	path length versus vehicle treated group ([2]; aged rats (~80 weeks old), acquisition days 3, 4 and 5, p<0.05, p<0.01)	target latency versus vehicle treated group ([2]; aged rats, days 3, 4 and 5, statistically significant (p<0.05, p<0.01) only on day 3 and 5)	time in the target quadrant during the probe trial versus vehicle ([2]; aged rats, probe trial on 10th day, p<0.05)	aggression levels (duration of attack) [3]	memory (duration of freezing) [4]	effect on object memory deficits [5]
COc1ccc2c(c1)c(CN1CCN(C)CC1)cn2S(=O)(=O)c1ccccc1Br [SUVN-502, 1-[(2-Bromophenyl)sulfonyl]-5-methoxy-3-[(4-methyl-1-piperazinyl)methyl]-1H-indole dimesylate monohydrate]	increased novel object recognition	significantly lesser	also lesser	more time in the target quadrant	decreased the aggression levels	improved the memory	reversed the object memory deficits
COc1cc2c(cc1OC)C(=O)C(CC1CCN(Cc3ccccc3)CC1)C2 (centres unmarked) [donepezil, reference compound]							did not reverse the object memory deficits
